# From PubChem BioAssay AID2060619 (Molecular Pharmacology Branch, DTP, NCI, 2025)
# System: 323965-272-R-J2-PDC complex spheroid viability
# Test: Anticancer human tumor 323965-272-R-J2-PDC patient-derived pancreatic carcinoma cell line growth inhibition [CLK]
# Details: for IC50: curve of first compound; for viability, T/C: stronger effect = lower value
# Summary of the method: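 Multi-cell-type spheroids combined patient-derived tumor cells with HUVEC endothelial cells and human mesenchymal stem cells. Paired agents were dosed in half-log steps down from about clinical Cmax, or from 10 microM where Cmax was unknown.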
# [1] = second compound 0.0316 µM, first compound 0.0316 µM
# [2] = second compound 0.0316 µM, first compound 0.1 µM
# [3] = second compound 0.0316 µM, first compound 0.316 µM
# [4] = second compound 0.0316 µM, first compound 1 µM
# [5] = second compound 0.1 µM, first compound 0.0316 µM
# [6] = second compound 0.1 µM, first compound 0.1 µM
# [7] = second compound 0.1 µM, first compound 0.316 µM
# [8] = second compound 0.1 µM, first compound 1 µM
# [9] = second compound 0.316 µM, first compound 0.0316 µM
# [10] = second compound 0.316 µM, first compound 0.1 µM
# [11] = second compound 0.316 µM, first compound 0.316 µM
# [12] = second compound 0.316 µM, first compound 1 µM
# [13] = second compound 1 µM, first compound 0.0316 µM
# [14] = second compound 1 µM, first compound 0.1 µM
# [15] = second compound 1 µM, first compound 0.316 µM
# [16] = second compound 1 µM, first compound 1 µM
# [17] = second compound 3.16 µM, first compound 0.0316 µM
# [18] = second compound 3.16 µM, first compound 0.1 µM
# [19] = second compound 3.16 µM, first compound 0.316 µM
# [20] = second compound 3.16 µM, first compound 1 µM
# [21] = second compound 10 µM, first compound 0.0316 µM
# [22] = second compound 10 µM, first compound 0.1 µM
# [23] = second compound 10 µM, first compound 0.316 µM
# [24] = second compound 10 µM, first compound 1 µM
# 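Note: spheroids exposed to agents for seven days before readout.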
# 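Throughout, for viability, T/C: percent of DMSO vehicle control wells so 100% = untreated growth.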
structure (smiles),measurement,setting,value
CCN1CCN(Cc2ccc(Nc3ncc(F)c(-c4cc(F)c5nc(C)n(C(C)C)c5c4)n3)nc2)CC1 + CN1CCN(c2cc(C(=O)Nc3cc4cc(-c5cnn(C)c5)ccc4cn3)ccn2)CC1,IC50,second compound 0.0316 µM,> 1 µM
same,IC50,second compound 0.1 µM,> 1 µM
same,IC50,second compound 0.316 µM,< 0.00316 µM
same,IC50,second compound 1 µM,< 0.00316 µM
same,IC50,second compound 3.16 µM,< 0.00316 µM
same,IC50,second compound 10 µM,< 0.00316 µM
same,"viability, T/C","second compound 0.0316 µM, first compound 0.00316 µM",93.6%
same,"viability, T/C","second compound 0.0316 µM, first compound 0.01 µM",96.1%
same,"viability, T/C",[1],78.2%
same,"viability, T/C",[2],73.1%
same,"viability, T/C",[3],65.2%
same,"viability, T/C",[4],76.1%
same,"viability, T/C","second compound 0.1 µM, first compound 0.00316 µM",68.6%
same,"viability, T/C","second compound 0.1 µM, first compound 0.01 µM",67.8%
same,"viability, T/C",[5],62.6%
same,"viability, T/C",[6],60.2%
same,"viability, T/C",[7],59.7%
same,"viability, T/C",[8],58.9%
same,"viability, T/C","second compound 0.316 µM, first compound 0.00316 µM",23.3%
same,"viability, T/C","second compound 0.316 µM, first compound 0.01 µM",24.5%
same,"viability, T/C",[9],25.5%
same,"viability, T/C",[10],27.9%
same,"viability, T/C",[11],29.6%
same,"viability, T/C",[12],39.9%
same,"viability, T/C","second compound 1 µM, first compound 0.00316 µM",3.56%
same,"viability, T/C","second compound 1 µM, first compound 0.01 µM",3.73%
same,"viability, T/C",[13],3.71%
same,"viability, T/C",[14],3.79%
same,"viability, T/C",[15],7.89%
same,"viability, T/C",[16],9.9%
same,"viability, T/C","second compound 3.16 µM, first compound 0.00316 µM",3.02%
same,"viability, T/C","second compound 3.16 µM, first compound 0.01 µM",5.31%
same,"viability, T/C",[17],3.88%
same,"viability, T/C",[18],3.9%
same,"viability, T/C",[19],4.69%
same,"viability, T/C",[20],6.79%
same,"viability, T/C","second compound 10 µM, first compound 0.00316 µM",3.83%
same,"viability, T/C","second compound 10 µM, first compound 0.01 µM",4.01%
same,"viability, T/C",[21],4.24%
same,"viability, T/C",[22],3.37%
same,"viability, T/C",[23],4.88%
same,"viability, T/C",[24],5.11%
CC1COCCN1c1cc(C2(S(C)(=N)=O)CC2)nc(-c2ccnc3[nH]ccc23)n1 (centres undefined) + CNC(=O)c1ccc(Nc2nc(OC3CCCC3)c3c(-c4ccc5nc(C)oc5c4)c[nH]c3n2)c(OC)c1,IC50,second compound 0.0316 µM,2.1 µM
same,IC50,second compound 0.1 µM,1.68 µM
same,IC50,second compound 0.316 µM,1.18 µM
same,IC50,second compound 1 µM,< 0.0316 µM
same,IC50,second compound 3.16 µM,< 0.0316 µM
same,IC50,second compound 10 µM,< 0.0316 µM
same,"viability, T/C",[1],109%
same,"viability, T/C",[2],106%
same,"viability, T/C",[3],90.7%
same,"viability, T/C",[4],70.1%
same,"viability, T/C","second compound 0.0316 µM, first compound 3.16 µM",38.2%
same,"viability, T/C","second compound 0.0316 µM, first compound 10 µM",25.6%
same,"viability, T/C",[5],94%
same,"viability, T/C",[6],93.8%
same,"viability, T/C",[7],64.2%
same,"viability, T/C",[8],64.2%
same,"viability, T/C","second compound 0.1 µM, first compound 3.16 µM",37.8%
same,"viability, T/C","second compound 0.1 µM, first compound 10 µM",33.9%
same,"viability, T/C",[9],58.5%
same,"viability, T/C",[10],61.5%
same,"viability, T/C",[11],61.2%
same,"viability, T/C",[12],51.1%
same,"viability, T/C","second compound 0.316 µM, first compound 3.16 µM",37.4%
same,"viability, T/C","second compound 0.316 µM, first compound 10 µM",27.7%
same,"viability, T/C",[13],43.4%
same,"viability, T/C",[14],48.9%
same,"viability, T/C",[15],40.7%
same,"viability, T/C",[16],33.8%
same,"viability, T/C","second compound 1 µM, first compound 3.16 µM",24%
same,"viability, T/C","second compound 1 µM, first compound 10 µM",18.7%
same,"viability, T/C",[17],41.7%
same,"viability, T/C",[18],36.9%
same,"viability, T/C",[19],39.2%
same,"viability, T/C",[20],31.5%
same,"viability, T/C","second compound 3.16 µM, first compound 3.16 µM",24.1%
same,"viability, T/C","second compound 3.16 µM, first compound 10 µM",18.7%
same,"viability, T/C",[21],46.8%
same,"viability, T/C",[22],42.6%
same,"viability, T/C",[23],38.5%
same,"viability, T/C",[24],28.5%
same,"viability, T/C","second compound 10 µM, first compound 3.16 µM",22%
same,"viability, T/C","second compound 10 µM, first compound 10 µM",16.8%
